Results reported in patent publication EP0249561B1, “Compositions using liposome-encapsulated non-steroidal anti-inflammatory drugs” (THE LIPOSOME COMPANY, INC., priority 1986, dated 1987).

Legend:
female Wistar rats = test: Acute carageenan paw edema model, paw volume by plethysmometer (Control 2 / Example 3); assay type: in vivo; details: indomethacin 2 mg/kg oral, 30 minutes before carageenan, paw volume 2.5 hours after carageenan
Method: Eight female Wistar rats weighing approximately 100 grams were allowed free access to food and water. A tatoo line was inscribed onto the right rear paw just below the hair line. Initial paw volume was measured by a transducer-linked plethysmometer (Stoelting Co., Chicago, Illinois) which contained a saline solution. The instrument measures paw volumes by an electrical charge difference across two electrodes resulting from the volume displacement by the paw. A transducer corrects this charge difference into cubic centimeters of volume displaced. Following immersion of the paw in the perspex cell to the inscribed line, a direct measurement of the displacement volume was recorded. Rats were orally dosed with 2 mg/kg body weight of indomethacin in polyethylene glycol 400. At 30 minutes post treatment, rats received an injection of 0.1 ml of 1.5% carageenan in saline […] directly into the rear paw pad. The paw volume was again determined 2.5 hours after the carageenan administration. The edema intensity (EI) was calculated: [formula] and averaged for the eight rats. The paw volumes for the eight rats were averaged and the percent swelling inhibition was calculated: % swelling Reduction: [formula] […] Rats were orally dosed with the liposomes, and percent swelling reduction was calculated as in Example 2.

[1] = generally shown by others, cited from earlier work; for half-lives: range for the group
rats (Wistar) [2] = test: Inducing gastric ulcers (acute), oral administration (Control 3); assay type: in vivo; details: for mm Ulceration + SEM: acute oral, 4 hours
Description: For oral studies, it is convenient to use indomethacin but other nonsteroidal anti-inflammatory therapeutic agent can be similarly employed. This model is also useful in examining other nonsteroidal anti-inflammatory therapeutic agents and other mammals. Simply varying doses will induct gastric ulcers for other agents and mammals in this model. Unlike gastric ulcer protocols, it has been shown that for nonsteroidal anti-inflammatory effects such as indomethacin-induced intestinal lesions to occur, animals must be allowed free acces to food and water during the study.
Indomethacin at dosages between about 2 mg/kg and 10 mg/kg were given in 0.5 ml of neat PEG-400, vehicle or as incorporated into the liposomes at a 200 mg/kg dosage of phospholipid. Four hours following oral administration of test formulations, animals were sacrificed by CO₂ anoxia and the stomachs were excised. For systemically-induced gastric ulceration, dosages of PEG-400 solubilized indomethacin between 4 mg/kg and 50 mg/kg in 0.5 ml were administered subcutaneously. […] Tissue was thoroughly rinsed in saline and the inner mucosal surface was laid flat for microscopic evaluation. Visible ulcers were quantitated using a dissecting microscope (AO Optical, Buffalo, NY) equipped with an eyepiece micrometer. Results using this test were expressed in millimeters of ulceration and in percent inhibition of ulcers where treatment was effected. For all studies, a minimum of 10 animals per experimental group were employed. Experiments were conducted in triplicate, thereby representing a minimum of 30 rats per group.

rats (Wistar) [3] = test: Inducing intestinal ulceration (chronic), 4-day oral dosing (Control 4); assay type: in vivo; details: about 4 mg/kg daily oral over 4 days
Method: Single daily oral dosages of indomethacin at about 4 mg/kg in vehicle or in monophasic vesicles were administered over 4 days. Test animals in this example were rats (Wistar). On the fifth day the full length of the intestines were excised and slit open opposite to the attached mesenteric issue. The mucosal surface was rinsed with saline, the ulcers (including perforations) were quantitated in millimeters as described about or by determination of total surface area of lesions. This was accomplished by means of a planimeter (Zidas, Carl Zeiss, West Germany) optically linked to an SR stereo dissecting microscope (Zeiss) with a draw tube attachment. In this example results were expressed as total mm² of ulcerated surface and as percent inhibition of ulceration when treatment was provided. Average values were calculated based upon a minimum of 5 animals per group from at least duplicate experiments. […] Sham vehicle, however, were nontoxic to the animals. Clearly this method is easily adaptable by those skilled in the art to other nonsteroidal anti-inflammatory therapeutic agents and other animals.

male Wistar rats = test: Acute ulceration after one oral dose of indomethacin, ulcer lengths counted in excised stomachs (Control 1 / Example 2); assay type: in vivo; details: indomethacin 10 mg/kg, starved rats, 4 hours after dosing
Method: Twenty 225-250 g male Wistar rats were starved for 18-24 hours prior to dosing. Rats were allowed access to water throughout the study. Ten rats in the free drug control group were then administered one oral dose of indomethacin, dissolved in polyethylene glycol 400 at 7 mg/ml and administered at 10 mg/kg body weight of indomethacin.
Four hours following dosing, rats were sacrificed by carbon dioxide anoxia and their stomachs surgically removed by severing at the cardiac and pyloric sphinctors. The stomachs were opened along the lesser curve, flattened, and washed with saline. Ulcer lengths were counted under a dissecting microscope (American Optical, Buffalo, NY) equipped with an eyepiece micrometer, and lengths were summed and averaged for all animals in a single treatment group.
Ulcer protection was assessed by summing and averaging ulcer lengths (in mm) of the treated group and comparing the value to that of the group administered free drug […]. Percent ulcer inhibition was calculated by dividing the average length of ulceration of the liposome-treated group by the of the corresponding free drug group, and multiplying by 100.
The procedures and materials of Example 1 were employed using 10 mg/kg body weight of indomethacin entrapped in stable plurilamellar vesicles (SPLVs) composed of digalactosyl diglyceride; ulcer protection was assessed as in Example 1.

rat stomach mucosa = details: rats dosed with the prostaglandin; cited from earlier work

Compound | blood level half-lives [1] | half-lives [1] | also measured
COc1ccc2c(c1)c(CC(=O)O)c(C)n2C(=O)c1ccc(Cl)cc1 [Indomethacin in PEG-400, indomethacin] | under four | – | % SWELLING REDUCTION (female Wistar rats): 37.2%; total ulcer length, high reached in individual experiments (rats (Wistar) [2]; 10 mg indomethacin/kg body weight, P.O.): 45 mm; mm Ulceration + SEM (rats (Wistar) [2]; indomethacin 2 mg/kg): 1.1 ± 0.3 mm; mm Ulceration + SEM (rats (Wistar) [2]; indomethacin 4 mg/kg): 3.4 ± 0.8 mm; mm Ulceration + SEM (rats (Wistar) [2]; indomethacin 6 mg/kg): 9.7 ± 1.2 mm; mm Ulceration + SEM (rats (Wistar) [2]; indomethacin 8 mg/kg): 22.3 ± 3.4 mm; mm Ulceration + SEM (rats (Wistar) [2]; indomethacin 10 mg/kg): 23.3 ± 2.6 mm; mm Ulceration + SEM (rats (Wistar) [2]; indomethacin 10 mg/kg, listed as indomethacin in PEG-400): 25 mm; mortality rate (rats (Wistar) [3]): 20-30%; mm ULCERATION (male Wistar rats): 43.9 mm
Cc1cccc(Nc2ccccc2C(=O)O)c1C [Mefenamic acid] | about four | – | –
CC(=O)Oc1ccccc1C(=O)O [acetylsalicylic, Acetylsalicylic Acid (ASA)] | under four | – | –
O=C(O)Cc1ccccc1Nc1c(Cl)cccc1Cl [diclofenac] | under four | – | –
O=C(O)c1cc(-c2ccc(F)cc2F)ccc1O [diflunisal] | – | over ten hours to three days | –
CC(C(=O)O)c1cccc(Oc2ccccc2)c1 (stereo not shown) [fenoprofen] | under four | – | –
Cc1ccc(Cl)c(Nc2ccccc2C(=O)O)c1Cl [meclofenamate] | under four | – | –
CCCCC1C(=O)N(c2ccccc2)N(c2ccccc2)C1=O [phenylbutazone] | – | over ten hours to three days | –
CN1C(C(=O)Nc2ccccn2)=C(O)c2ccccc2S1(=O)=O [piroxicam] | – | over ten hours to three days | –
CC1=C(CC(=O)O)c2cc(F)ccc2/C1=C\c1ccc([S+](C)[O-])cc1 (stereo not shown) [sulindac] | – | over ten hours to three days | –
Cc1ccc(C(=O)c2ccc(CC(=O)O)n2C)cc1 [tolmetin] | under four | – | –
Prostaglandin E₂ | – | – | increase in the major gastric surface protective surfactant (rat stomach mucosa): 2-6 fold
